System: Key Broadleaf Weed and Crop Species
Test: Post-Emergent Test II (Table 5)
Format: in vivo
Conditions: Abutilon theophrasti, post-emergence, 336 h, ABUTH: velvetleaf (Abutilon theophrasti), application rate 70 (kg ai/ha; footnote: g ai/ha), read-out: Visual Growth Reduction (%) 14 Days After Application ABUTH
Method in brief: (§1)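 Visual injury ratings (0 = no injury, 100 = complete kill) taken 14 days after treatment, relative to untreated controls. Compounds, in an acetone/DMSO aqueous carrier with crop oil and surfactant, were applied by track sprayer at 187 L/ha, in a twofold dilution series from the top rate, to plants at the first to second true-leaf stage.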

SMILES	pest or weed control at 70 g/ha [%]
Cc1ccc(-c2nc(C(=O)O)c(Cl)c(N)c2F)cn1 [Compound 85]	0 to 29

Same assay, conditions: Abutilon theophrasti, post-emergence, 336 h, ABUTH: velvetleaf (Abutilon theophrasti), application rate 140 (kg ai/ha; footnote: g ai/ha), read-out: Visual Growth Reduction (%) 14 Days After Application ABUTH

SMILES	pest or weed control at 140 g/ha [%]
Cc1ccc(-c2nc(C(=O)O)c(Cl)c(N)c2F)cn1 [Compound 85]	0 to 29

Same assay, conditions: Amaranthus retroflexus, post-emergence, 336 h, AMARE: redroot pigweed (Amaranthus retroflexus), application rate 70 (kg ai/ha; footnote: g ai/ha), read-out: Visual Growth Reduction (%) 14 Days After Application AMARE

SMILES	pest or weed control at 70 g/ha [%]
Cc1ccc(-c2nc(C(=O)O)c(Cl)c(N)c2F)cn1 [Compound 85]	95 to 100

Same assay, conditions: Amaranthus retroflexus, post-emergence, 336 h, AMARE: redroot pigweed (Amaranthus retroflexus), application rate 140 (kg ai/ha; footnote: g ai/ha), read-out: Visual Growth Reduction (%) 14 Days After Application AMARE

SMILES	pest or weed control at 140 g/ha [%]
Cc1ccc(-c2nc(C(=O)O)c(Cl)c(N)c2F)cn1 [Compound 85]	95 to 100

Same assay, conditions: Brassica napus, post-emergence, 336 h, BRSSS: oilseed rape, canola (Brassica napus), application rate 70 (kg ai/ha; footnote: g ai/ha), read-out: Visual Growth Reduction (%) 14 Days After Application BRSSS

SMILES	pest or weed control at 70 g/ha [%]
Cc1ccc(-c2nc(C(=O)O)c(Cl)c(N)c2F)cn1 [Compound 85]	60 to 74

Same assay, conditions: Brassica napus, post-emergence, 336 h, BRSSS: oilseed rape, canola (Brassica napus), application rate 140 (kg ai/ha; footnote: g ai/ha), read-out: Visual Growth Reduction (%) 14 Days After Application BRSSS

SMILES	pest or weed control at 140 g/ha [%]
Cc1ccc(-c2nc(C(=O)O)c(Cl)c(N)c2F)cn1 [Compound 85]	75 to 84

Same assay, conditions: Chenopodium album, post-emergence, 336 h, CHEAL: lambsquarters (Chenopodium album), application rate 70 (kg ai/ha; footnote: g ai/ha), read-out: Visual Growth Reduction (%) 14 Days After Application CHEAL

SMILES	pest or weed control at 70 g/ha [%]
Cc1ccc(-c2nc(C(=O)O)c(Cl)c(N)c2F)cn1 [Compound 85]	0 to 29

Same assay, conditions: Chenopodium album, post-emergence, 336 h, CHEAL: lambsquarters (Chenopodium album), application rate 140 (kg ai/ha; footnote: g ai/ha), read-out: Visual Growth Reduction (%) 14 Days After Application CHEAL

SMILES	pest or weed control at 140 g/ha [%]
Cc1ccc(-c2nc(C(=O)O)c(Cl)c(N)c2F)cn1 [Compound 85]	45 to 59

Same assay, conditions: Euphorbia heterophylla, post-emergence, 336 h, EPHHL: wild poinsettia (Euphorbia heterophylla), application rate 70 (kg ai/ha; footnote: g ai/ha), read-out: Visual Growth Reduction (%) 14 Days After Application EPHHL

SMILES	pest or weed control at 70 g/ha [%]
Cc1ccc(-c2nc(C(=O)O)c(Cl)c(N)c2F)cn1 [Compound 85]	0 to 29

Same assay, conditions: Euphorbia heterophylla, post-emergence, 336 h, EPHHL: wild poinsettia (Euphorbia heterophylla), application rate 140 (kg ai/ha; footnote: g ai/ha), read-out: Visual Growth Reduction (%) 14 Days After Application EPHHL

SMILES	pest or weed control at 140 g/ha [%]
Cc1ccc(-c2nc(C(=O)O)c(Cl)c(N)c2F)cn1 [Compound 85]	0 to 29

Same assay, conditions: Helianthus annuus, post-emergence, 336 h, HELAN: sunflower (Helianthus annuus), application rate 70 (kg ai/ha; footnote: g ai/ha), read-out: Visual Growth Reduction (%) 14 Days After Application HELAN

SMILES	pest or weed control at 70 g/ha [%]
Cc1ccc(-c2nc(C(=O)O)c(Cl)c(N)c2F)cn1 [Compound 85]	30 to 44

Same assay, conditions: Helianthus annuus, post-emergence, 336 h, HELAN: sunflower (Helianthus annuus), application rate 140 (kg ai/ha; footnote: g ai/ha), read-out: Visual Growth Reduction (%) 14 Days After Application HELAN

SMILES	pest or weed control at 140 g/ha [%]
Cc1ccc(-c2nc(C(=O)O)c(Cl)c(N)c2F)cn1 [Compound 85]	45 to 59

Same assay, conditions: Viola tricolor, post-emergence, 336 h, VIOTR: wild pansy (Viola tricolor), application rate 70 (kg ai/ha; footnote: g ai/ha), read-out: Visual Growth Reduction (%) 14 Days After Application VIOTR

SMILES	pest or weed control at 70 g/ha [%]
Cc1ccc(-c2nc(C(=O)O)c(Cl)c(N)c2F)cn1 [Compound 85]	0 to 29

Same assay, conditions: Viola tricolor, post-emergence, 336 h, VIOTR: wild pansy (Viola tricolor), application rate 140 (kg ai/ha; footnote: g ai/ha), read-out: Visual Growth Reduction (%) 14 Days After Application VIOTR

SMILES	pest or weed control at 140 g/ha [%]
Cc1ccc(-c2nc(C(=O)O)c(Cl)c(N)c2F)cn1 [Compound 85]	0 to 29

System: not given
Test: not given
Conditions: not given

melting point [°C]	SMILES
186 to 187	Cc1ccc(-c2nc(C(=O)O)c(Cl)c(N)c2F)cn1 [Compound 85]

System: Key Grass and Sedge Weeds as well as Grass Crops
Test: Post-Emergent Test II (Table 6)
Format: in vivo
Conditions: post-emergence, 336 h, CYPSS, 70 g ai/ha, 14 days after application, read-out: Visual Growth Reduction (%) 14 Days After Application CYPSS
Method in brief: as §1

SMILES	pest or weed control at 70 g/ha [%]
Cc1ccc(-c2nc(C(=O)O)c(Cl)c(N)c2F)cn1 [Compound 85]	0 to 29

Same assay, conditions: post-emergence, 336 h, CYPSS, 140 g ai/ha, 14 days after application, read-out: Visual Growth Reduction (%) 14 Days After Application CYPSS

SMILES	pest or weed control at 140 g/ha [%]
Cc1ccc(-c2nc(C(=O)O)c(Cl)c(N)c2F)cn1 [Compound 85]	0 to 29

Same assay, conditions: post-emergence, 336 h, DIGSA: crabgrass (Digitaria sanguinalis), 70 g ai/ha, 14 days after application, read-out: Visual Growth Reduction (%) 14 Days After Application DIGSA

SMILES	pest or weed control at 70 g/ha [%]
Cc1ccc(-c2nc(C(=O)O)c(Cl)c(N)c2F)cn1 [Compound 85]	0 to 29

Same assay, conditions: post-emergence, 336 h, DIGSA: crabgrass (Digitaria sanguinalis), 140 g ai/ha, 14 days after application, read-out: Visual Growth Reduction (%) 14 Days After Application DIGSA

SMILES	pest or weed control at 140 g/ha [%]
Cc1ccc(-c2nc(C(=O)O)c(Cl)c(N)c2F)cn1 [Compound 85]	0 to 29

Same assay, conditions: post-emergence, 336 h, ECHSS, 70 g ai/ha, 14 days after application, read-out: Visual Growth Reduction (%) 14 Days After Application ECHSS

SMILES	pest or weed control at 70 g/ha [%]
Cc1ccc(-c2nc(C(=O)O)c(Cl)c(N)c2F)cn1 [Compound 85]	45 to 59

Same assay, conditions: post-emergence, 336 h, ORYSS (crop), 70 g ai/ha, 14 days after application, read-out: Visual Growth Reduction (%) 14 Days After Application ORYSS

SMILES	pest or weed control at 70 g/ha [%]
Cc1ccc(-c2nc(C(=O)O)c(Cl)c(N)c2F)cn1 [Compound 85]	0 to 29

Same assay, conditions: post-emergence, 336 h, ORYSS (crop), 140 g ai/ha, 14 days after application, read-out: Visual Growth Reduction (%) 14 Days After Application ORYSS

SMILES	pest or weed control at 140 g/ha [%]
Cc1ccc(-c2nc(C(=O)O)c(Cl)c(N)c2F)cn1 [Compound 85]	0 to 29

Same assay, conditions: post-emergence, 336 h, SETFA: giant foxtail (Setaria faberi), 70 g ai/ha, 14 days after application, read-out: Visual Growth Reduction (%) 14 Days After Application SETFA

SMILES	pest or weed control at 70 g/ha [%]
Cc1ccc(-c2nc(C(=O)O)c(Cl)c(N)c2F)cn1 [Compound 85]	0 to 29

Same assay, conditions: post-emergence, 336 h, SETFA: giant foxtail (Setaria faberi), 140 g ai/ha, 14 days after application, read-out: Visual Growth Reduction (%) 14 Days After Application SETFA

SMILES	pest or weed control at 140 g/ha [%]
Cc1ccc(-c2nc(C(=O)O)c(Cl)c(N)c2F)cn1 [Compound 85]	0 to 29

Same assay, conditions: post-emergence, 336 h, SORVU: grain sorghum (Sorghum vulgare), 70 g ai/ha, 14 days after application, read-out: Visual Growth Reduction (%) 14 Days After Application SORVU

SMILES	pest or weed control at 70 g/ha [%]
Cc1ccc(-c2nc(C(=O)O)c(Cl)c(N)c2F)cn1 [Compound 85]	0 to 29

Same assay, conditions: post-emergence, 336 h, SORVU: grain sorghum (Sorghum vulgare), 140 g ai/ha, 14 days after application, read-out: Visual Growth Reduction (%) 14 Days After Application SORVU

SMILES	pest or weed control at 140 g/ha [%]
Cc1ccc(-c2nc(C(=O)O)c(Cl)c(N)c2F)cn1 [Compound 85]	0 to 29

Same assay, conditions: post-emergence, 336 h, TRZSS (crop), 70 g ai/ha, 14 days after application, read-out: Visual Growth Reduction (%) 14 Days After Application TRZSS

SMILES	pest or weed control at 70 g/ha [%]
Cc1ccc(-c2nc(C(=O)O)c(Cl)c(N)c2F)cn1 [Compound 85]	0 to 29

Same assay, conditions: post-emergence, 336 h, TRZSS (crop), 140 g ai/ha, 14 days after application, read-out: Visual Growth Reduction (%) 14 Days After Application TRZSS

SMILES	pest or weed control at 140 g/ha [%]
Cc1ccc(-c2nc(C(=O)O)c(Cl)c(N)c2F)cn1 [Compound 85]	0 to 29

Same assay, conditions: post-emergence, 336 h, ZEAMX: maize, corn (Zea mays), 70 g ai/ha, 14 days after application, read-out: Visual Growth Reduction (%) 14 Days After Application ZEAMX

SMILES	pest or weed control at 70 g/ha [%]
Cc1ccc(-c2nc(C(=O)O)c(Cl)c(N)c2F)cn1 [Compound 85]	0 to 29

Same assay, conditions: post-emergence, 336 h, ZEAMX: maize, corn (Zea mays), 140 g ai/ha, 14 days after application, read-out: Visual Growth Reduction (%) 14 Days After Application ZEAMX

SMILES	pest or weed control at 140 g/ha [%]
Cc1ccc(-c2nc(C(=O)O)c(Cl)c(N)c2F)cn1 [Compound 85]	0 to 29

From patent US10765114B2, “4-amino-6-(pyridyl and 2-substitutedphenyl)-picolinates and 6-amino-2-(pyridyl and 2-substitutedphenyl)-pyrimidine-4-carboxylates and their use as herbicides” (Dow AgroSciences LLC, priority 2013, dated 2020)
